Measurements reported in ChEMBL document CHEMBL4507294, “Data for DCP probe MSD-CYP11B2” (2021).

Legend:
[1] = target: Atypical kinase COQ8B, mitochondrial (Homo sapiens) (UniProt Q96D53); conditions: Compound concentration 1000.0 nM
[2] = target: Bone morphogenetic protein receptor type-1B (Homo sapiens) (UniProt O00238); conditions: Compound concentration 1000.0 nM
[3] = target: Serine/threonine-protein kinase BRSK1 (Homo sapiens) (UniProt Q8TDC3); conditions: Compound concentration 1000.0 nM
[4] = target: Tyrosine-protein kinase BTK (Homo sapiens) (UniProt Q06187); conditions: Compound concentration 1000.0 nM
[5] = target: Calcium/calmodulin-dependent protein kinase type 1 (Homo sapiens) (UniProt Q14012); conditions: Compound concentration 1000.0 nM
[6] = target: Calcium/calmodulin-dependent protein kinase type II subunit gamma (Homo sapiens) (UniProt Q13555); conditions: Compound concentration 1000.0 nM
[7] = target: Calcium/calmodulin-dependent protein kinase type IV (Homo sapiens) (UniProt Q16566); conditions: Compound concentration 1000.0 nM
[8] = target: Calcium/calmodulin-dependent protein kinase kinase 2 (Homo sapiens) (UniProt Q96RR4); conditions: Compound concentration 1000.0 nM
[9] = target: Cyclin-dependent kinase 4 (Homo sapiens) (UniProt P11802); conditions: Compound concentration 1000.0 nM
[10] = target: Casein kinase II subunit alpha' (Homo sapiens) (UniProt P19784); conditions: Compound concentration 1000.0 nM
[11] = target: Death-associated protein kinase 3 (Homo sapiens) (UniProt O43293); conditions: Compound concentration 1000.0 nM
[12] = target: Mitogen-activated protein kinase kinase kinase 12 (Homo sapiens) (UniProt Q12852); conditions: Compound concentration 1000.0 nM
[13] = target: Myotonin-protein kinase (Homo sapiens) (UniProt Q09013); conditions: Compound concentration 1000.0 nM
[14] = target: Tyrosine-protein kinase Fer (Homo sapiens) (UniProt P16591); conditions: Compound concentration 1000.0 nM
[15] = tested on: Receptor-type tyrosine-protein kinase FLT3 (Homo sapiens), P36888 [D835H]; conditions: Compound concentration 1000.0 nM
[16] = tested on: Receptor-type tyrosine-protein kinase FLT3 (Homo sapiens), P36888 [N841I]; conditions: Compound concentration 1000.0 nM
[17] = target: Tyrosine-protein kinase FRK (Homo sapiens) (UniProt P42685); conditions: Compound concentration 1000.0 nM
[18] = target: Beta-adrenergic receptor kinase 1 (Homo sapiens) (UniProt P25098); conditions: Compound concentration 1000.0 nM
[19] = target: Homeodomain-interacting protein kinase 2 (Homo sapiens) (UniProt Q9H2X6); conditions: Compound concentration 1000.0 nM
[20] = target: Homeodomain-interacting protein kinase 3 (Homo sapiens) (UniProt Q9H422); conditions: Compound concentration 1000.0 nM
[21] = target: Interleukin-1 receptor-associated kinase 4 (Homo sapiens) (UniProt Q9NWZ3); conditions: Compound concentration 1000.0 nM
[22] = target: Tyrosine-protein kinase JAK1 (Homo sapiens) (UniProt P23458); conditions: Compound concentration 1000.0 nM
[23] = target: Serine/threonine-protein kinase LATS1 (Homo sapiens) (UniProt O95835); conditions: Compound concentration 1000.0 nM
[24] = target: Mitogen-activated protein kinase kinase kinase 2 (Homo sapiens) (UniProt Q9Y2U5); conditions: Compound concentration 1000.0 nM
[25] = target: Mitogen-activated protein kinase kinase kinase kinase 5 (Homo sapiens) (UniProt Q9Y4K4); conditions: Compound concentration 1000.0 nM
[26] = target: Serine/threonine-protein kinase Nek10 (Homo sapiens) (UniProt Q6ZWH5); conditions: Compound concentration 1000.0 nM
[27] = target: Platelet-derived growth factor receptor beta (Homo sapiens) (UniProt P09619); conditions: Compound concentration 1000.0 nM
[28] = target: Cyclin-dependent kinase 2 homolog (Plasmodium falciparum (isolate 3D7)) (UniProt P61075); conditions: Compound concentration 1000.0 nM
[29] = target: Membrane-associated tyrosine- and threonine-specific cdc2-inhibitory kinase (Homo sapiens) (UniProt Q99640); conditions: Compound concentration 1000.0 nM
[30] = target: Serine/threonine-protein kinase PRP4 homolog (Homo sapiens) (UniProt Q13523); conditions: Compound concentration 1000.0 nM
[31] = target: Rho-associated protein kinase 2 (Homo sapiens) (UniProt O75116); conditions: Compound concentration 1000.0 nM
[32] = target: SRSF protein kinase 1 (Homo sapiens) (UniProt Q96SB4); conditions: Compound concentration 1000.0 nM
[33] = target: Serine/threonine-protein kinase TAO3 (Homo sapiens) (UniProt Q9H2K8); conditions: Compound concentration 1000.0 nM
[34] = target: TGF-beta receptor type-2 (Homo sapiens) (UniProt P37173); conditions: Compound concentration 1000.0 nM
[35] = target: Non-receptor tyrosine-protein kinase TNK1 (Homo sapiens) (UniProt Q13470); conditions: Compound concentration 1000.0 nM
[36] = target: BDNF/NT-3 growth factors receptor (Homo sapiens) (UniProt Q16620); conditions: Compound concentration 1000.0 nM
[37] = target: Transient receptor potential cation channel subfamily M member 6 (Homo sapiens) (UniProt Q9BX84); conditions: Compound concentration 1000.0 nM
[38] = target: Testis-specific serine/threonine-protein kinase 1 (Homo sapiens) (UniProt Q9BXA7); conditions: Compound concentration 1000.0 nM
[39] = target: Non-receptor tyrosine-protein kinase TYK2 (Homo sapiens) (UniProt P29597); conditions: Compound concentration 1000.0 nM
[40] = target: Vascular endothelial growth factor receptor 2 (Homo sapiens) (UniProt P35968); conditions: Compound concentration 1000.0 nM
[41] = target: 5-hydroxytryptamine receptor 1A (Homo sapiens) (UniProt P08908); conditions: Compound concentration 10.0 uM
[42] = target: Histamine H1 receptor (Homo sapiens) (UniProt P35367); conditions: Compound concentration 10.0 uM
[43] = target: GABA-A receptor; anion channel (Rattus norvegicus) (UniProt O09028+P15431+P18506+P18508+P19969+P20236+P23574+P23576+P28471+P28473+P30191+P62813+P63079+P63138+Q91ZM7+Q9ES14); conditions: Compound concentration 10.0 uM

Calcium/calmodulin-dependent protein kinase type IV (Homo sapiens), sequence (Q16566 whole entry): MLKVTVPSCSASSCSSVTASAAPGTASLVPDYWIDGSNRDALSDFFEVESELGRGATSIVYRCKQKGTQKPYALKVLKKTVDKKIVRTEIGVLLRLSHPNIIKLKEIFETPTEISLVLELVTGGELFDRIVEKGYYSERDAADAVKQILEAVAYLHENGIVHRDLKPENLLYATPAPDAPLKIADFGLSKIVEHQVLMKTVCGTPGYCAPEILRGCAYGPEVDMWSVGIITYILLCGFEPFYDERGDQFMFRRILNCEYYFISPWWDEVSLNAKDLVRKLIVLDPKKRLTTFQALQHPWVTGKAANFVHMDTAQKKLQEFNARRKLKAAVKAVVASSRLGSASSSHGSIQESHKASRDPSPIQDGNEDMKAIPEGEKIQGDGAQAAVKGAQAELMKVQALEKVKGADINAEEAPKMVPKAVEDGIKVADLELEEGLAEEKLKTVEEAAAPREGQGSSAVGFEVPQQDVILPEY
Calcium/calmodulin-dependent protein kinase type II subunit gamma (Homo sapiens), sequence (Q13555 whole entry): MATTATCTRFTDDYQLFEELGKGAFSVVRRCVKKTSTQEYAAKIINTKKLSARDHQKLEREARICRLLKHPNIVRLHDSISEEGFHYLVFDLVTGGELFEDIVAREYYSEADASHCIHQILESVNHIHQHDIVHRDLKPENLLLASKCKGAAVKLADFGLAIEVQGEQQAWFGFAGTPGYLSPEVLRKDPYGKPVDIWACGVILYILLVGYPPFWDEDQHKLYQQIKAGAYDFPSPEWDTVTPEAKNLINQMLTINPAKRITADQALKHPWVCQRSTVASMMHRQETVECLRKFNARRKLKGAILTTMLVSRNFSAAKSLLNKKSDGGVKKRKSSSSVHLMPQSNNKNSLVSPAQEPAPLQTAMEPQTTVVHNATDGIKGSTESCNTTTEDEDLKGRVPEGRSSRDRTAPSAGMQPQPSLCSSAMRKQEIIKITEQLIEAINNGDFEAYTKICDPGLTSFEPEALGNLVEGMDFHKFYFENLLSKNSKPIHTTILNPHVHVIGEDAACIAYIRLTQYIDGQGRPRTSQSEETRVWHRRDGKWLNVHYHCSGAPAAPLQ
Tyrosine-protein kinase FRK (Homo sapiens), sequence (P42685 whole entry): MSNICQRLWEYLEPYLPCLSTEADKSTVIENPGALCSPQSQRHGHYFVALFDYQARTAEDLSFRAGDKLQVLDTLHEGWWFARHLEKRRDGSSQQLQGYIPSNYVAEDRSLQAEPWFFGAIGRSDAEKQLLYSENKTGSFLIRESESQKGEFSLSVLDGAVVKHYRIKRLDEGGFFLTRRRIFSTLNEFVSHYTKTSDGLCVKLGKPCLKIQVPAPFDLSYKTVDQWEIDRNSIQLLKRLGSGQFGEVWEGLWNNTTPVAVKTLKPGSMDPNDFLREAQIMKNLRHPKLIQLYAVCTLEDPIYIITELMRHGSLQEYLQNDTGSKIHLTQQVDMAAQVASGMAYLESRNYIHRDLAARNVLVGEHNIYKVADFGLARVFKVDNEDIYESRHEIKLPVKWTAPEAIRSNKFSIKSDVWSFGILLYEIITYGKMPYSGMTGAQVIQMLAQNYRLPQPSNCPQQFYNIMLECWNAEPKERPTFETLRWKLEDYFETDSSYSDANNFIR
Tyrosine-protein kinase Fer (Homo sapiens), sequence (P16591 whole entry, looked up): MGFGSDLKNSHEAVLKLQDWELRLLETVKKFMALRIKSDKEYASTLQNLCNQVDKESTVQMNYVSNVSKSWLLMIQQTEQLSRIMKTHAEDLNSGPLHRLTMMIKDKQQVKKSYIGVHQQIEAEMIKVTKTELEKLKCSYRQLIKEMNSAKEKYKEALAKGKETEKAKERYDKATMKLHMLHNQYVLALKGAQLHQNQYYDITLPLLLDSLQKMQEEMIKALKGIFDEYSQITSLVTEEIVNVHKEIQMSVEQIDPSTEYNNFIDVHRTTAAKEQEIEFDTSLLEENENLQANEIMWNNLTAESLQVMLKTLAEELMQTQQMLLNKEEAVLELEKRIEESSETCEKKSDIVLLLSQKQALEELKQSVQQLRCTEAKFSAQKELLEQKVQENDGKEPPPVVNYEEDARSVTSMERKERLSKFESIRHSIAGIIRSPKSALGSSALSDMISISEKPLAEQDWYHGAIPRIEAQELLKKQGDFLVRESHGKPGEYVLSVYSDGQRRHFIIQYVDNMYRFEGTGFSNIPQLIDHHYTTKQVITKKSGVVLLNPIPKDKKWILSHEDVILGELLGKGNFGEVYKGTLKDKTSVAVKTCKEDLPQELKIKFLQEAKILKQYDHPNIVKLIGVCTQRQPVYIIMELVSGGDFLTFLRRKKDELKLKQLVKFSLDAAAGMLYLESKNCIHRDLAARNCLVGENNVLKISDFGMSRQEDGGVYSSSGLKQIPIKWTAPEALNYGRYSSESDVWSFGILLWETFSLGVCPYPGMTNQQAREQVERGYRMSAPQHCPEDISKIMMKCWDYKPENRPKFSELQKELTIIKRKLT
BDNF/NT-3 growth factors receptor (Homo sapiens), sequence (Q16620 32-822 limits assumed): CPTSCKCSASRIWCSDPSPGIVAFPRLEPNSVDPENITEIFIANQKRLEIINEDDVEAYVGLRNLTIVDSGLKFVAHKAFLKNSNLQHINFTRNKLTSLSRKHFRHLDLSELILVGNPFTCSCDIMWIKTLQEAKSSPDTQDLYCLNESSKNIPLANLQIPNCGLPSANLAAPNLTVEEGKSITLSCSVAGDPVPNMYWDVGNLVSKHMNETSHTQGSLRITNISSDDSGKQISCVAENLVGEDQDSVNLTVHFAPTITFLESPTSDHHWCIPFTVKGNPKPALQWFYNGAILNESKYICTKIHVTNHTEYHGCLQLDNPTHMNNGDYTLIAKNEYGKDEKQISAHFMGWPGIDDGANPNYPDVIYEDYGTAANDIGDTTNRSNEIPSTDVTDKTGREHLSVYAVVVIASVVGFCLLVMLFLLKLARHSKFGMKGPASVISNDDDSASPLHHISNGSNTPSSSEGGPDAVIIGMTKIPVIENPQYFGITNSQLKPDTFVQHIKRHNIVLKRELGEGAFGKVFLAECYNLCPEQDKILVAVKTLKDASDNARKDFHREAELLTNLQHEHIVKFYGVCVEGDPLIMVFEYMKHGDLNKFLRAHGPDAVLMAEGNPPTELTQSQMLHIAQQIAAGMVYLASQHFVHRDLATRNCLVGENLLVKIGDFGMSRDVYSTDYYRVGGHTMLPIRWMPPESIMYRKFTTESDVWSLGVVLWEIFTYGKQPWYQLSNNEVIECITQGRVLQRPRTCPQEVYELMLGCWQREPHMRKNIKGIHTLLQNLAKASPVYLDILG
Cyclin-dependent kinase 2 homolog (Plasmodium falciparum (isolate 3D7)), sequence (P61075 whole entry): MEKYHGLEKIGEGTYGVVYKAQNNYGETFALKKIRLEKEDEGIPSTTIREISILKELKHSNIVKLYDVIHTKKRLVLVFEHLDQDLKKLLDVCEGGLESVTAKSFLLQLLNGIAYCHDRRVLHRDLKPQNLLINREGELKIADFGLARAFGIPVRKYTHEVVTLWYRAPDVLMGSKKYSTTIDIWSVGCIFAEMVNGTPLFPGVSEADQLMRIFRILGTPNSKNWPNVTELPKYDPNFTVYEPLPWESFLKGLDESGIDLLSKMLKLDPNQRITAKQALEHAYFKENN
Atypical kinase COQ8B, mitochondrial (Homo sapiens), sequence (Q96D53 whole entry): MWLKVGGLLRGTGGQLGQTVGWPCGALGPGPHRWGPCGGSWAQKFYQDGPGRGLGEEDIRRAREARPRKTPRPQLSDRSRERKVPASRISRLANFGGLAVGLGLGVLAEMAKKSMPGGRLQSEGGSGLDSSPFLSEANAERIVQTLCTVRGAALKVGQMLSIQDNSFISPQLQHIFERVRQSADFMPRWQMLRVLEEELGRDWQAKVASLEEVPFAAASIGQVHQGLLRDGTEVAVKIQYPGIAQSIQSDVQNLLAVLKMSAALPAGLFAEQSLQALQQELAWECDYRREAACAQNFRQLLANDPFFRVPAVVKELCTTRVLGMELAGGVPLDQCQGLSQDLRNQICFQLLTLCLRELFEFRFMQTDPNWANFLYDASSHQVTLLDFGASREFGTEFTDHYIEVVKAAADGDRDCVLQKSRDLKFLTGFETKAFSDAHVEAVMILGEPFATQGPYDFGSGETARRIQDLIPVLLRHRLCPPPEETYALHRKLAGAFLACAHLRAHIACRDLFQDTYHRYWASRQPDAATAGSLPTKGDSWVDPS
Mitogen-activated protein kinase kinase kinase 2 (Homo sapiens), sequence (Q9Y2U5 whole entry): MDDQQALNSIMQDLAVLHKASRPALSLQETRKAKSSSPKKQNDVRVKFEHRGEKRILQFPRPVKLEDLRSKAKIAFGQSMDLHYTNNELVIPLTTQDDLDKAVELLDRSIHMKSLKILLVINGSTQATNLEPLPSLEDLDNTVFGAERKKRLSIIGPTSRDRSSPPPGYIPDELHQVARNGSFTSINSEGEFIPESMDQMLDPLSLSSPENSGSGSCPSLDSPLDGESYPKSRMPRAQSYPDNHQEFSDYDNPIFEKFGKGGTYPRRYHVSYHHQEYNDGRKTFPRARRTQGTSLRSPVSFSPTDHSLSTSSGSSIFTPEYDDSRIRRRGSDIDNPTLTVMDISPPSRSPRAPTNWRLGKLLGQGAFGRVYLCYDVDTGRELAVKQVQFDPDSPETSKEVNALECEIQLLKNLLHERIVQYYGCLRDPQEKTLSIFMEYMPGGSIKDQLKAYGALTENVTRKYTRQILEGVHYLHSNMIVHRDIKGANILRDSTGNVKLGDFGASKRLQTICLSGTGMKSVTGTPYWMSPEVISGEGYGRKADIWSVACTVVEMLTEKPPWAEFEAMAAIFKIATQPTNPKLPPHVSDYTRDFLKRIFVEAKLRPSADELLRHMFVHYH
Casein kinase II subunit alpha' (Homo sapiens), sequence (P19784 whole entry, looked up): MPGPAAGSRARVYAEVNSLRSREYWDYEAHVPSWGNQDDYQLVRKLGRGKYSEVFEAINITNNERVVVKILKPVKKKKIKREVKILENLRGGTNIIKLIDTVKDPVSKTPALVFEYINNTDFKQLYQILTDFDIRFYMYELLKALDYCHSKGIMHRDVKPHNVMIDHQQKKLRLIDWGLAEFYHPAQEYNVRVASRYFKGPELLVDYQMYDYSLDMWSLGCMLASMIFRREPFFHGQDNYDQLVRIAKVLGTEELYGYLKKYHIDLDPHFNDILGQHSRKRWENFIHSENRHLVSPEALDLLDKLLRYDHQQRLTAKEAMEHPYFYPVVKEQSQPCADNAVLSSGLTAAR

CC(C)(O)c1cncc(-c2nc3ccc(F)cc3n2C2CC2)c1 [MSD-CYP11B2]
inactive: residual activity [1] 100% | residual activity [2] 96% | residual activity [3] 100% | residual activity [4] 83% | residual activity [5] 100% | residual activity [6] 100% | residual activity [7] 100% | residual activity [8] 100% | residual activity [9] 100% | residual activity [10] 100% | residual activity [11] 100% | residual activity [12] 100% | residual activity [13] 71% | residual activity [14] 100% | residual activity [15] 89% | residual activity [16] 100% | residual activity [17] 100% | residual activity [18] 100% | residual activity [19] 100% | residual activity [20] 93% | residual activity [21] 100% | residual activity [22] 80% | residual activity [23] 82% | residual activity [24] 100% | residual activity [25] 92% | residual activity [26] 100% | residual activity [27] 100% | residual activity [28] 100% | residual activity [29] 100% | residual activity [30] 58% | residual activity [31] 92% | residual activity [32] 100% | residual activity [33] 100% | residual activity [34] 100% | residual activity [35] 100% | residual activity [36] 100% | residual activity [37] 100% | residual activity [38] 97% | residual activity [39] 100% | residual activity [40] 100% | inhibition [41] 1.22% | inhibition [42] 9.54% | inhibition [43] 16.6%

FC(F)(F)c1ccc2c(c1)nc(-c1cccnc1)n2C1CC1 [MSD-CYP11B2-Negative-control]
inactive: residual activity [1] 100% | residual activity [2] 83% | residual activity [3] 100% | residual activity [4] 93% | residual activity [5] 100% | residual activity [6] 100% | residual activity [7] 100% | residual activity [8] 100% | residual activity [9] 100% | residual activity [10] 100% | residual activity [11] 100% | residual activity [12] 100% | residual activity [13] 92% | residual activity [14] 100% | residual activity [15] 69% | residual activity [16] 100% | residual activity [17] 100% | residual activity [18] 100% | residual activity [19] 100% | residual activity [20] 100% | residual activity [21] 100% | residual activity [22] 85% | residual activity [23] 86% | residual activity [24] 100% | residual activity [25] 100% | residual activity [26] 100% | residual activity [27] 100% | residual activity [28] 100% | residual activity [29] 100% | residual activity [30] 98% | residual activity [31] 100% | residual activity [32] 80% | residual activity [33] 100% | residual activity [34] 100% | residual activity [35] 100% | residual activity [36] 100% | residual activity [37] 100% | residual activity [38] 100% | residual activity [39] 100% | residual activity [40] 100% | inhibition [41] 0.44% | inhibition [42] 9.49% | inhibition [43] 2.02%
